Assay results from patent US5352667A, “Non-peptidic surrogates of the Arg-Gly-Asp sequence and pharmaceutical compositions comprising them” (priority 1991, dated 1994).
“Also recorded” adds a separate entry of the source.

Legend:
trypsin = experiment: Treatment with trypsin (HPLC monitoring of hydrolysis); assay type: in vitro ADME; conditions: 0.25% trypsin, 37° C., HPLC at 220 nm, aliquots 5, 30, 60 min
Experimental: Compound SF-6,5 and the GRGDS peptide (50 μg in 100 μl PBS) were incubated at 37° C. and exposed to 0.25% trypsin (Gibco; 50μl in modified Puck's buffer). Aliquots were taken after 5, 30 and 60 min and monitored by HPLC at 220 nm.

[1] = test system: BHK cells and chick embryo fibroblasts; conditions: Yamada and Kennedy, 1987; cited from earlier work
[2] = test system: B16-melanoma cells adhesion to FN; experiment: Inhibition of B16-melanoma cell adhesion to FN; assay type: cell-based, murine
[3] = test system: CD4^+ T cell adhesion to FN; experiment: Inhibition of activated CD4+ T cell adhesion to FN; assay type: cell-based, human
Experimental: To examine the adhesive properties of the T cells, 1 μg/50 μl/well of either fibronectin (FN) (Sigma), the 120 kD cell attachment fragment of FN (Telios Pharm. Inc. San Diego, CA), or laminin (LN) (Sigma), were added to 96-flat bottom microtiter-wells for 12 h. Unbound proteins were then washed away and remaining binding sites were blocked with 0.1% bovine serum albumin (BSA) added to the wells for 2 h and washed. CD4+T cells were purified from peripheral blood mononuclear leukocytes obtained from healthy human donors. The mononuclear cells were isolated using a Ficoll gradient, washed and incubated in RPMI supplemented with 10% fetal calf serum (FCS) and antibiotics in petri dishes at 37° C. humidified CO2 incubator. After 2 h, the non-adherent cells were isolated and applied on nylon-wool columns (1.5 h). CD4^+ T cells were then negatively selected by exposure of the cells to a cocktail of anti-CD8, CD19, and CD14 monoclonal antibodies (mAb) conjugated to magnetic-beads (Advanced Magnetics, MA). Unbound cells were recovered and their phenotype was examined. Purity of the CD4^+ T cells was always greater than 92% as determined by FACScan.
The purified CD4^+ T cells were radioactively labeled with ^51 [Cr](New England Nuclear) in RPMI +20% FCS for 2 h and washed. The cells were counted and seeded (0.2×10^5 cells) on the precoated microtiter wells in the presence or the absence of the various inhibitors. Coating was made either with FN, the 120 kD cell-attachment fragment of FN or with control adhesive protein laminin (LN). The inhibitors were various surrogates according to the invention, other test molecules or mAb. After 30 min incubation (in […] CO2 -- humidified incubator) the T cells were activated by 10 ng/ml phorbol myristate acetate (PMA) and the percent of T cells attached to the protein substrates was measured. Unbound cells were washed away after 20-30 min, the bound cells were lysed and their radioactivity was measured using radioactive counter. The amount of the radioactivity of the cell lysates represent the matrix-adherent cells and percent binding was calculated in comparison to the total radioactivity added to the wells. Activated T cell adhesion to control wells or to wells coated with BSA was always 2-5%; the level of adhesion of the non-activated T cells was always below 5%. Where indicated, 1/200 diluted mAb anti-CD29 (anti-β1 mAb Serotec, GB), or 1/400 diluted anti-VLA5 (the β1α5 FN-integrin receptor) mAb (Telios Pharm. Inc. San Diego), or 0.2 mM of RGD, GRGDSPK or GRGESP peptides (Sigma) were used. […] The results shown in Tables 1A, 1B and 1C represent data obtained from several experiments that produced essentially similar results.
In a second series of experiments, FN was used in the adhesion assay carried out with the RGD surrogates NS-8, NS-11 and NS-15 in comparison to RGDS peptide.
In a third series of experiments, FN was used in the adhesion assay with the surrogates SF-6,5 and NS-11 and compared to the peptide GRGDSP.

[4] = target: T1, platelet GPIIb-IIIa receptor (Homo sapiens, UniProt P05106+P08514); experiment: Inhibition of ADP-induced platelet aggregation (platelet rich plasma); assay type: cell-based
T1 construct: Platelet concentrates were prepared from human whole blood; endogenous in cells; host or cells: human platelets in platelet rich plasma
Experimental: To investigate the inhibitory role of the RGD analogues on adhesion, the platelet GPIIb-IIIa receptor which mediates platelet aggregation upon activation was used as a model.
Platelet concentrates were prepared from human whole blood in 10% adenine-citrate-dextrose in Fenwall bags (Baxter Travenol, Israel) followed by standard AABB protocol. Platelet rich plasma was prepared by centrifugation (2500 rpm for 5 min). Samples of platelets were counted in a Minos AST Cell Counter (Levoiselle, France). Cell aggregation was induced by […] and monitored at […] in a 4-channel Aggregometer (Bio-Data, Hatboro, Pa.). To evaluate the effect of the various RGD peptides and the peptide analogues, the platelet rich plasma was pre-incubated with the various inhibitors for 10 min at 37° C. with 10μsolutions followed by the induction of aggregation.
To examine the specificity of the inhibitory effect of the RGD-analogues on platelet aggregation, the cells were treated with various peptidic (RGD and GRGDSP) and non-peptidic (SF-6,6, SF-6,5 and AC-15) RGD analogues used at a fixed sub-saturating concentration of 0.5 mM.
An in vitro assay as described in Example 17 was carried out with the compound NS-11 to examine its ability to interfere with platelet aggregation, and compared it to the SF-6,5 surrogate.
Platelet rich plasma (PRP) was prepared from acid/citrate/dextrose anti-coagulated fresh human blood by differential centrifugation. Platelet aggregation was induced by […] and monitored at 695 nm by a 4-channel Aggregometer (Bio-Data, PA). To evaluate the effect of the RGDS peptide and the NS-8, NS-11 and NS-15 analogs, the PRP was preincubated with the inhibitors for 10 minutes at 37° C., prior to the induction of aggregation. […] In fact, 50% inhibition of platelet aggregation was achieved using a 30-fold lower concentration of NS-11 than that of RGDS.

[5] = test system: tumor cell-induced metastases; experiment: Inhibition of tumor cell-induced metastases in C57BL/6 mice; assay type: in vivo; conditions: i.v. daily, 25μg of SF-6,5 per mouse, after induction of metastasis

T1 sequence (P08514 32-887 limits assumed): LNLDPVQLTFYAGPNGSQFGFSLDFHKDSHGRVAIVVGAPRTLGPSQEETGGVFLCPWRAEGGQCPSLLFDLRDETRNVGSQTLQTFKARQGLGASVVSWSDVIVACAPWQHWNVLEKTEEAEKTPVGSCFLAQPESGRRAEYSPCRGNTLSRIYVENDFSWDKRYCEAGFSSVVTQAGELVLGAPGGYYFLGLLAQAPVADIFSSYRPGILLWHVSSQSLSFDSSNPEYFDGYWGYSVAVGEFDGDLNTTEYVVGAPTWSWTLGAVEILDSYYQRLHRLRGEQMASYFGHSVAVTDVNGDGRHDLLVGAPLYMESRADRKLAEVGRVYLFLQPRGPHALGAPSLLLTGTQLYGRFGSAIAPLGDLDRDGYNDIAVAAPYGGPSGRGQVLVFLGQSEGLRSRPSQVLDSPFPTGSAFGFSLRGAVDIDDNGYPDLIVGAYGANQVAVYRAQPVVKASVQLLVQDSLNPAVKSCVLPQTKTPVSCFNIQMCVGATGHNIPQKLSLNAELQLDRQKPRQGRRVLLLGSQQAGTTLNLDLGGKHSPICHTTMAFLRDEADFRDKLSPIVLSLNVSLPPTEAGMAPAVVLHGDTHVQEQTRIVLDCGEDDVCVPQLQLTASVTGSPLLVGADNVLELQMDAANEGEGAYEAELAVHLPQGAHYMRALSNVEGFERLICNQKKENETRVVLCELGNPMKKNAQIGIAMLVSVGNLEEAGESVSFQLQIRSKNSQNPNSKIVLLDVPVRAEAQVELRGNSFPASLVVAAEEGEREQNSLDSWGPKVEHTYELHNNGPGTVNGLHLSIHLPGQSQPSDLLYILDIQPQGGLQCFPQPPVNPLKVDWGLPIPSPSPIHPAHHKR
T1 sequence (P08514 891-1039 limits assumed): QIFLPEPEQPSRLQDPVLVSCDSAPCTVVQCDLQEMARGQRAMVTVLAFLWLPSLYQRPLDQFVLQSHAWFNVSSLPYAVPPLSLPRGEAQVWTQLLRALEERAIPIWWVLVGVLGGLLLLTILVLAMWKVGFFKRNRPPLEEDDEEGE
T1 sequence (P05106 27-788): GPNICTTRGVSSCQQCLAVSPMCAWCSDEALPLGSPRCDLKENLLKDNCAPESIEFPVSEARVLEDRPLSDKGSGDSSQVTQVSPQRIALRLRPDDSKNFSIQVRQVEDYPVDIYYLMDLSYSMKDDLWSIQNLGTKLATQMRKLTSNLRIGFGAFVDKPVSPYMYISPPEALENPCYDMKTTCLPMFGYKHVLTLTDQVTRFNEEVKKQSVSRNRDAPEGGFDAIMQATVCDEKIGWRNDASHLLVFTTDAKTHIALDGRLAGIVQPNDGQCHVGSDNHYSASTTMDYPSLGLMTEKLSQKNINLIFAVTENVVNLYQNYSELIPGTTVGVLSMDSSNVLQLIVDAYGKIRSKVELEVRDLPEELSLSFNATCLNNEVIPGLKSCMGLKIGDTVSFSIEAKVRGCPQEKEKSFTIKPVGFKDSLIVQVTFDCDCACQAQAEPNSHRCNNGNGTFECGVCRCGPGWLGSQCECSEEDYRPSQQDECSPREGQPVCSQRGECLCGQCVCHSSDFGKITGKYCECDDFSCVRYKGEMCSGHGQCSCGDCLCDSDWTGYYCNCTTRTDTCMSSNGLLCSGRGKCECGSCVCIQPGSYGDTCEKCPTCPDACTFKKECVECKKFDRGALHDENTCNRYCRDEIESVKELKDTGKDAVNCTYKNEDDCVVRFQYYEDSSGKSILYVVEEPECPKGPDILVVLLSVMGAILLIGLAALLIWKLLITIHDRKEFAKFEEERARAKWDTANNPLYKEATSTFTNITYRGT

GRGDS [reference compound]
Stability to trypsin (trypsin): completely hydrolized after 5 min

Ser-Asp-Gly-Arg (SDGR; printed: Ser-Asp-Gly-Arg)
Inhibition of cell spreading, in words [1]: inhibit spreading of BHK cells and chick embryo fibroblasts on vitronectin-coated substrates and on fibronectin-coated substrates

GRGDSP [reference compound]
% Adhesion of activated tumor cells to FN: (% inhibition) ([2]; Conc. 25 μg. ml): 30% | % Adhesion of activated tumor cells to FN: (% inhibition) ([2]; Conc. 50 μg. ml): 40% | % Adhesion of activated tumor cells to FN: (% inhibition) ([2]; Conc. 100 μg. ml): 65% | % Adhesion of activated CD4^+ T cell to FN: (% inhibition) ([3]; Conc. 25 μg. ml): 40% | % Adhesion of activated CD4^+ T cell to FN: (% inhibition) ([3]; Conc. 50 μg. ml): 50% | % Adhesion of activated CD4^+ T cell to FN: (% inhibition) ([3]; Conc. 100 μg. ml): 75% | Percent inhibition of aggregation ([4]; 0.1 mM, ADP-induced): 75% | Inhibition of tumor cell-induced metastases [5]: failed to inhibit metastases

N=C(N)NCCCC(=O)N1CCCC(C(=O)NCCC(=O)O)C1 (stereo not shown) [NS-11]
% Adhesion of activated tumor cells to FN: (% inhibition) ([2]; Conc. 25 μg. ml): 35% | % Adhesion of activated tumor cells to FN: (% inhibition) ([2]; Conc. 50 μg. ml): 45% | % Adhesion of activated tumor cells to FN: (% inhibition) ([2]; Conc. 100 μg. ml): 70% | % Adhesion of activated CD4^+ T cell to FN: (% inhibition) ([3]; Conc. 25 μg. ml): 30% | % Adhesion of activated CD4^+ T cell to FN: (% inhibition) ([3]; Conc. 50 μg. ml): 50% | % Adhesion of activated CD4^+ T cell to FN: (% inhibition) ([3]; Conc. 100 μg. ml): 85% | Inhibition of cell adhesion relative to RGDS, in words ([3]; Table 1B): better inhibitor of cell adhesion than the RGDS peptide | % Inhibition of adhesion ([3]; Table 1B, surrogates 0.2 mM, CD4^+ T cell to FN): 71% | % Adhesion of activated CD4^+ to FN ([3]; Table 1B, surrogates 0.2 mM, none 65): 19% | inhibition at 100 µM ([4]; 0.1 mM, ADP-induced, read-out: Percent inhibition of aggregation): 90% | Effect on platelet aggregation better than that of the RGD-peptide by ([4]; 0.1 mM, same concentration): ~20% | inhibition at 300 µM ([4]; 0.3 mM, ADP-induced, read-out: Percent inhibition of aggregation): 100% | Inhibition of platelet aggregation, comparison in words ([4]; FIG. 5, Example 19): better inhibitor of platelet aggregation than either NS-8 and NS-15; also recorded: found to inhibit platelet aggregation better than the RGD-containing peptide (RGDS) | 50% inhibition of platelet aggregation: lower concentration than that of RGDS ([4]; FIG. 5, vs RGDS): 30 fold | Inhibition of platelet aggregation, in words ([4]; Table 3): better inhibitor of platelet aggregation than SF-6,5; also recorded: significantly better inhibitor than the RGD-containing peptide
